{"source": "patent US20200155503A1", "about": "“COMPOSITIONS FOR USE FOR TREATING CUTANEOUS LEISHMANIASIS” (BIONOOX SA, priority 2017, published 2020)", "key": {"[1]": {"tested_on": "Neutrophil", "assay": "Neutrophil cell viability by flow cytometry with DAPI staining", "assay_type": "cell-based", "method": "Neutrophil cell viability was assessed by flow cytometry with DAPI staining pas 24 hours incubation with dihydroquercetin (5, 15 and 25 μM), 3-(2-chloroacetamido) ethyl benzoate (1, 2 and 4 μM) and bisabolol (0.05, 0.1 and 0.5% w/v)."}, "[2]": {"tested_on": "Leishmania major mCherry", "assay": "Parasite killing in bone marrow-derived macrophages infected with Leishmania major mCherry (flow cytometry, microscopy)", "assay_type": "cell-based", "conditions": "for macrophage mediated parasite killing: BMDM infected with L. major mCherry, compounds tested individually", "method": "The direct microbicidal effect of compounds against the Leishmania parasites in infected macrophages and neutrophils was evaluated.\nBone marrow-derived macrophages (BMDM) were cultured for 7 days, harvested and infected with Leishmania major mCherry for 2 hrs. Then the non-phagocytosed parasites were washed and dihydroquercetin, 3-(2-chloroacetamido) ethyl benzoate or bisabolol were added at different concentrations and incubated at different time points. • Parasites killing was evaluated by flow cytometry and microscopy. • NO production was assessed by Griess reaction from the supernatants."}, "[3]": {"tested_on": "Leishmania parasites", "assay": "Individual evaluation against Leishmania parasites", "conditions": "evaluated individually"}, "[4]": {"tested_on": "Neutrophils infected with L. major mCherry", "assay": "ROS production by neutrophils infected with L. major mCherry (Luminol)", "assay_type": "cell-based", "conditions": "MOI 1:10, Luminol for 90 min", "method": "Neutrophils were isolated by Magnetic-activated cell sorting (MACS) and infected with L. major mCherry at a multiplicity of infection ratio (MOI) of 1:10.\nDihydroquercetin, […] ethyl benzoate or bisabolol at different concentrations were added and stimulated for 24 hours.\nKinetic of ROS production was measured by Luminol for 90 min."}}, "note": "Read-outs that look alike come from different tables or passages of the source."}
{"compound": "CC(C)=CCCC(C)(O)C1CC=C(C)CC1", "note": "(stereo not shown) [bisabolol, 6-methyl-2-(4-methyl-3-cyclohexen-1-yl)-5-hepten-2-ol]", "values": [{"measurement": "cytotoxicity (neutrophil cell viability)", "setting": "[1]", "result": "no cytotoxicity"}, {"measurement": "macrophage mediated parasite killing", "setting": "[2]", "result": "no impact on macrophage mediated parasite killing"}, {"measurement": "effect against Leishmania parasites", "setting": "[3]", "result": "no or limited effect"}]}
{"compound": "Cc1c(C)c2c(c(C)c1O)CC[C@@](C)(CCC[C@H](C)CCC[C@H](C)CCCC(C)C)O2", "note": "[alpha-tocopherol, (2R)-2,5,7,8-Tetramethyl-2-[(4R,8R)-(4,8,12-trimethyltridecyl)]-6-chromanol]", "values": [{"measurement": "effect against Leishmania parasites", "setting": "[3]", "result": "no or limited effect"}]}
{"compound": "CCOC(=O)c1cccc(NC(=O)CCl)c1", "note": "[3-(2-chloroacetamido) ethyl benzoate]", "values": [{"measurement": "neutrophil viability", "setting": "[1]; 24 hours incubation, 1, 2 and 4 μM", "result": "induced a reduction in neutrophil viability"}, {"measurement": "direct microbicidal effect against L. major", "setting": "[2]; infected macrophages and neutrophils, different concentrations", "result": "had a direct microbicidal effect against L. major"}, {"measurement": "ROS production", "setting": "[4]", "result": "decrease in ROS production"}]}
{"compound": "O=C1c2c(O)cc(O)cc2OC(c2ccc(O)c(O)c2)C1O", "note": "(stereo not shown) [Dihydroquercetin]", "values": [{"measurement": "cytotoxicity (neutrophil cell viability)", "setting": "[1]; 24 hours incubation, 5, 15 and 25 μM", "result": "no cytotoxicity"}, {"measurement": "macrophage mediated parasite killing", "setting": "[2]", "result": "no impact on macrophage mediated parasite killing"}, {"measurement": "effect against Leishmania parasites", "setting": "[3]", "result": "no or limited effect"}]}
